Measured values published in PubChem BioAssay AID2060356 (Molecular Pharmacology Branch, DTP, NCI, 2025).

Test system: PDC tumor spheroids with HUVEC/MSC, viability
Assay: Anticancer human tumor 439559-082-T-J2-PDC patient-derived colon adenocarcinoma cell line growth inhibition [TAK]
Conditions: for IC50: curve of first compound; for viability, T/C: stronger effect = lower value
Text: Combinatorial screen of targeted agents with TAK-243 and ipatasertib in multi-cell type tumor spheroids
A high-throughput screen of multi-cell type tumor spheroids was designed to identify active combinations of targeted small molecules and TAK-243 or ipatasertib. Complex spheroids include a stromal component modeled by human endothelial cells (HUVEC) and fibroblasts modeled by human mesenchymal stem cells (MSCs). The concentration ranges selected for each drug and investigational agent were based upon clinically achievable concentrations if the clinical Cmax of the agent was known.
Compounds. The drugs and investigational agents: TAK-243 (785004), ipatasertib (767898), everolimus (733504), selumetinib (741078), bortezomib (756655), trametinib (758246), ixazomib (758254), vemurafenib (761431), dabrafenib (764134), sapanisertib (764658), alpelisib (765974), and copanlisib (816437), were obtained from the National Cancer Institute (NCI) Developmental Therapeutics Program Chemical Repository. The FDA-approved anticancer drug set is available from the NCI Developmental Therapeutics Program. […] The stock solutions were prepared in dimethyl sulfoxide (DMSO, Sigma-Aldrich, St. Louis, MO, cat. D2650) at 800-fold the tested concentration and stored at -70 degrees C prior to their use. All drugs and investigational agents were tested over a range starting from a high concentration at or near the clinical Cmax and decreasing in half-log increments. If the clinical Cmax for an agent had not been determined, the highest concentration tested was 10 microM.
NCI60 Cell Culture. NCI60 cell lines were obtained from the NCI Developmental Therapeutics Program Tumor Repository. For each lot of cells, the Repository performed Applied Biosystems AmpFLSTR Identifiler testing with PCR amplification to confirm consistency with the published Identifier STR profile for each cell line. Cells were kept in continuous culture for no more than 20 passages. The optimal seeding densities for each of the cell lines at each time point assessed were determined prior to performing the concentration response studies. Briefly, the NCI60 human tumor lines were grown as monolayers in RPMI 1640 medium supplemented with 10% FBS and 2 mmol/L L-glutamine.
An additional 2 lines were from the NCI60 cell line panel including melanomas, MALME-3M and SK-MEL-2. Pooled donor human umbilical vein endothelial cells (HUVEC, Lonza, cat. CC-2519) and human mesenchymal stem cells (hMSC, Lonza, cat. PT-2501) were purchased from Lonza (Walkersville, MD).
PDMR cell lines were grown in complete medium (DC medium): Dulbecco's modified Eagle's medium (DMEM)/F12 supplemented with 5% fetal bovine serum (FBS), 2 mM L-glutamine, 100 U/mL penicillin and 100 µg/ml streptomycin, 0.4 µg/ml hydrocortisone, 10 ng/ml epidermal growth factor (EGF) recombinant human protein, 24 µg/mL adenine, and 0.1 mg/mL primocin. During culture from frozen stock vials, PDMR cells were cultured in the same medium containing 10 µM Y-27632 (see Table 3). The PDCs were cultured in complete DMEM/F12 media without 10 microM Y-27632 dihydrochloride for at least two passages prior to the screen. The pooled donor HUVEC and hMSC were cultured in endothelial cell growth medium 2 (PromoCell, Heidelberg, Germany, cat. C-22011) and mesenchymal stem cell growth medium 2 (PromoCell, cat. C-28009), respectively. For all experiments, HUVEC and hMSC were used at passages </=5.
For the pre-screen, cell seeding densities were determined from a titration spanning the range from 5,000 to 313 cells per well. The mct-spheroids including 60% malignant cells, 25% HUVEC and 15% MSC dispensed as a mixture into U-bottom Ultra-Low Attachment 384-well plates (Corning, NY)
High-throughput Drug Combination Screening.
Prior to their inoculation into 384-well plates, malignant cells, HUVEC, and hMSC were removed from T flasks using TrypLE express (Thermo Fisher Scientific, cat. 12605036) and harvested by centrifugation for 5 min at 233 x g. […]
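Note: spheroids exposed to drugs for seven days before readout.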

SMILES: CC(=O)Nc1cccc(-n2c(=O)n(C3CC3)c(=O)c3c(Nc4ccc(I)cc4F)n(C)c(=O)c(C)c32)c1 + CC(C)NCC(C(=O)N1CCN(c2ncnc3c2C(C)CC3O)CC1)c1ccc(Cl)cc1
- IC50 (second compound 0.3 µM): > 30 nM
- IC50 (second compound 0.949 µM): > 30 nM
- IC50 (second compound 3 µM): > 30 nM
- IC50 (second compound 9.49 µM): > 30 nM
- IC50 (second compound 30 µM): > 30 nM
- viability, T/C (second compound 0.3 µM, first compound 94.9 pM): 105%
- viability, T/C (second compound 0.3 µM, first compound 0.0003 µM): 97.6%
- viability, T/C (second compound 0.3 µM, first compound 0.000949 µM): 85.8%
- viability, T/C (second compound 0.3 µM, first compound 0.003 µM): 74.3%
- viability, T/C (second compound 0.3 µM, first compound 0.00949 µM): 70.5%
- viability, T/C (second compound 0.3 µM, first compound 0.03 µM): 62.1%
- viability, T/C (second compound 0.949 µM, first compound 94.9 pM): 90.4%
- viability, T/C (second compound 0.949 µM, first compound 0.0003 µM): 89.7%
- viability, T/C (second compound 0.949 µM, first compound 0.000949 µM): 93.9%
- viability, T/C (second compound 0.949 µM, first compound 0.003 µM): 75.1%
- viability, T/C (second compound 0.949 µM, first compound 0.00949 µM): 66.6%
- viability, T/C (second compound 0.949 µM, first compound 0.03 µM): 62.2%
- viability, T/C (second compound 3 µM, first compound 94.9 pM): 102%
- viability, T/C (second compound 3 µM, first compound 0.0003 µM): 98.8%
- viability, T/C (second compound 3 µM, first compound 0.000949 µM): 76.8%
- viability, T/C (second compound 3 µM, first compound 0.003 µM): 77.2%
- viability, T/C (second compound 3 µM, first compound 0.00949 µM): 72.9%
- viability, T/C (second compound 3 µM, first compound 0.03 µM): 61%
- viability, T/C (second compound 9.49 µM, first compound 94.9 pM): 88.7%
- viability, T/C (second compound 9.49 µM, first compound 0.0003 µM): 92.9%
- viability, T/C (second compound 9.49 µM, first compound 0.000949 µM): 84.4%
- viability, T/C (second compound 9.49 µM, first compound 0.003 µM): 80.5%
- viability, T/C (second compound 9.49 µM, first compound 0.00949 µM): 66.9%
- viability, T/C (second compound 9.49 µM, first compound 0.03 µM): 55.1%
- viability, T/C (second compound 30 µM, first compound 94.9 pM): 89%
- viability, T/C (second compound 30 µM, first compound 0.0003 µM): 91.8%
- viability, T/C (second compound 30 µM, first compound 0.000949 µM): 81.7%
- viability, T/C (second compound 30 µM, first compound 0.003 µM): 73.5%
- viability, T/C (second compound 30 µM, first compound 0.00949 µM): 69.2%
- viability, T/C (second compound 30 µM, first compound 0.03 µM): 54.8%

SMILES: CC(C)n1nc(-c2ccc3oc(N)nc3c2)c2c(N)ncnc21 + CC(C)NCC(C(=O)N1CCN(c2ncnc3c2C(C)CC3O)CC1)c1ccc(Cl)cc1
- IC50 (second compound 0.3 µM): > 100 nM
- IC50 (second compound 0.949 µM): > 100 nM
- IC50 (second compound 3 µM): > 100 nM
- IC50 (second compound 9.49 µM): > 100 nM
- IC50 (second compound 30 µM): > 100 nM
- viability, T/C (second compound 0.3 µM, first compound 0.000316 µM): 109%
- viability, T/C (second compound 0.3 µM, first compound 0.001 µM): 98.8%
- viability, T/C (second compound 0.3 µM, first compound 0.00316 µM): 96.5%
- viability, T/C (second compound 0.3 µM, first compound 0.01 µM): 80.4%
- viability, T/C (second compound 0.3 µM, first compound 0.0316 µM): 73.1%
- viability, T/C (second compound 0.3 µM, first compound 0.1 µM): 71.2%
- viability, T/C (second compound 0.949 µM, first compound 0.000316 µM): 106%
- viability, T/C (second compound 0.949 µM, first compound 0.001 µM): 101%
- viability, T/C (second compound 0.949 µM, first compound 0.00316 µM): 83%
- viability, T/C (second compound 0.949 µM, first compound 0.01 µM): 85%
- viability, T/C (second compound 0.949 µM, first compound 0.0316 µM): 76%
- viability, T/C (second compound 0.949 µM, first compound 0.1 µM): 68%
- viability, T/C (second compound 3 µM, first compound 0.000316 µM): 101%
- viability, T/C (second compound 3 µM, first compound 0.001 µM): 91.8%
- viability, T/C (second compound 3 µM, first compound 0.00316 µM): 80.8%
- viability, T/C (second compound 3 µM, first compound 0.01 µM): 82%
- viability, T/C (second compound 3 µM, first compound 0.0316 µM): 73.7%
- viability, T/C (second compound 3 µM, first compound 0.1 µM): 71.8%
- viability, T/C (second compound 9.49 µM, first compound 0.000316 µM): 89.5%
- viability, T/C (second compound 9.49 µM, first compound 0.001 µM): 94.6%
- viability, T/C (second compound 9.49 µM, first compound 0.00316 µM): 84.1%
- viability, T/C (second compound 9.49 µM, first compound 0.01 µM): 78.7%
- viability, T/C (second compound 9.49 µM, first compound 0.0316 µM): 69.9%
- viability, T/C (second compound 9.49 µM, first compound 0.1 µM): 66.8%
- viability, T/C (second compound 30 µM, first compound 0.000316 µM): 88.6%
- viability, T/C (second compound 30 µM, first compound 0.001 µM): 91.1%
- viability, T/C (second compound 30 µM, first compound 0.00316 µM): 87.8%
- viability, T/C (second compound 30 µM, first compound 0.01 µM): 75%
- viability, T/C (second compound 30 µM, first compound 0.0316 µM): 73.3%
- viability, T/C (second compound 30 µM, first compound 0.1 µM): 70.3%
